Reference: EP4635958A1, “PYRIMIDINE-CONTAINING POLYCYCLIC DERIVATIVE INHIBITOR, AND PREPARATION METHOD THEREFOR AND USE THEREOF” (Shanghai Hansoh Biomedical Co., Ltd., priority 2022, dated 2024)

Assays:
KRAS G12D-SOS1 = biological target: T1, KRAS G12D-SOS1 (Homo sapiens, UniProt P01116, G12D); assay: Blocking of KRAS G12D-SOS1 protein binding (Cisbio KRAS-G12D/SOS1 Binding Assay Kit, time-resolved fluorescence); settings: KRAS G12D-GTP and SOS1 protein, signal ratio 665nm/620nm; read-out: G12D SOS1 biochemical IC50
T1 construct: purchased Cisbio 63ADK000CB17PEG
From the text: • 1. Experimental objective: […] Experimental reagents and instruments The centrifuge (5810R) was purchased from Eppendorf; the pipette was purchased from Eppendorf or Rainin; and the microplate reader was purchased from BioTek (United States) with a model of SynergyH1 multifunctional microplate reader. KRAS-G12D/SOS1 Binding Assay Kit was purchased from Cisbio, with a catalog number of 63ADK000CB17PEG; GTP was purchased from Sigma, with a catalog number of G8877; 384-well plate was purchased from Perkin Elmer, with a catalog number of 6007299. The Diluent buffer in the kit was used to dilute the compound into 10× compound solution of different concentrations, and 2 uL was added to each well of the 384-well plate. Tag2-KRAS G12D protein and GTP were formulated into a mixed solution of 5×KRAS G12D-GTP protein using Diluent buffer, and Tag1-SOS1 protein was formulated into a 5×SOS1 protein solution using Diluent buffer. Each solution was added to the 384-well plate separately at 4 uL per well, and incubated at room temperature for 15 min. A mixed solution of 2× anti-Tag1-Tb^3+ and anti-Tag2-XL665 formulated using detection buffer was added to the 384-well plate at 10 µL per well, and incubated at 4°C in the dark for 3 h.

KRAS WT = KRAS WT (Homo sapiens, UniProt P01116); assay: KRAS WT biochemical assay (Table 1, no method of its own); assay type: binding; settings: read-out: KRAS WT Biochemical IC50
GP2D = assay: Inhibition of proliferation of KRAS G12D mutant tumor cell line GP2D (CellTiter-Glo); settings: Homo sapiens, GP2d, 72 h, read-out: GP2D IC50
AsPC-1 = assay: Inhibition of proliferation of KRAS G12D mutant tumor cell line AsPC-1 (CellTiter-Glo); assay type: cell-based; settings: Homo sapiens, ASPC1, about 72 h
Procedure, shortened: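 KRAS G12D-mutant AsPC-1 cells plated overnight at 37 °C/5% CO2, then exposed to serial compound dilutions (DMSO/medium, vehicle control) for about 72 h. Viability read by CellTiter-Glo luminescence; inhibition rate vs concentration fitted by nonlinear regression for IC50.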

[1] = Pharmacokinetic determination in mice (IV and PO, plasma, LCMS/MS); assay type: in vivo, Balb/c mice; settings: male, Balb/c, mouse, in vivo, iv, 1 mg/kg
Procedure, shortened: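 Male Balb/c mice, fasted overnight (n=3 per route): PO 30 mg/kg in 10% Captisol/50 mM citrate pH 5.0, or IV 1 mg/kg in 5% DMSO/10% Solutol HS15/85% PBS. Orbital blood sampled predose to 24 h; EDTA plasma analysed by LC-MS/MS.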

T1 sequence (P01116 1-188 isoform P01116-2 G12D): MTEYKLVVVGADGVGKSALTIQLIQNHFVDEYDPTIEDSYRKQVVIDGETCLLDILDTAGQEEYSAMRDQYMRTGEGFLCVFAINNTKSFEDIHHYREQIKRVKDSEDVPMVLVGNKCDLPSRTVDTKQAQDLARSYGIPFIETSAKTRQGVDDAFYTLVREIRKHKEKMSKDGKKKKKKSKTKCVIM
Chain of KRAS WT (P01116 1-188 isoform P01116-2): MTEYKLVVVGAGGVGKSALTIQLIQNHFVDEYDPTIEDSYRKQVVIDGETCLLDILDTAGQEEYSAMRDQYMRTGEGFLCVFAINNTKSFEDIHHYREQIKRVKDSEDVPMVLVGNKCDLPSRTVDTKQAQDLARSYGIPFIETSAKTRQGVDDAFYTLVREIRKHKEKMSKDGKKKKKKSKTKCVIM

| Compound | IC50 (KRAS G12D-SOS1) | IC50 (KRAS WT) | IC50 (GP2D) | IC50 (AsPC-1) | AUC [1] | C0 [1] | clearance [1] | half-life [1] |
| --- | --- | --- | --- | --- | --- | --- | --- | --- |
| C#Cc1c(F)ccc2cc(O)cc(-c3nc4c5c(nc(OCC6(CN7CC8CC(=C(F)F)CC8C7)CC6)nc5c3F)N3CC5CCC(N5)C3CO4)c12 (centres unmarked) [Example 17-1] | 2.6 nM | 58 nM | 1.2 nM | – | – | – | – | – |
| C#Cc1c(F)ccc2cc(O)cc(-c3nc4c5c(nc(OCC6(CN7CCC(=NOC)CC7)CC6)nc5c3F)N3CC5CCC(N5)C3CO4)c12 [Example 21-1, 1-((1-((((5aS,6S,9R)-2-(8-ethynyl-7-fluoro-3-hydroxylnaphthalen-1-yl)-1-fluoro-5a,6,7,8,9,10-hexahydro-5H-4-oxa-3,10a,11,13,14-pentaaza-6,9-methylnaphtho[1,8-ab]hept-12-yl)oxy)methyl)cyclopropyl)methyl)piperidine-4-one-oxo-methyloxime] | 1.9 nM | 60 nM | 0.75 nM | 3.1 nM | 253 ng·h/mL | 939 ng/mL | 14.1 mL/min/kg | 9.1 h |
| C#Cc1c(F)ccc2cc(O)cc(-c3nc4c5c(nc(OCC6(CN7CCC(=C(F)F)C7)CC6)nc5c3F)N3CC5CCC(N5)C3CO4)c12 (centres unmarked) [Example 14-1] | 4.3 nM | 153 nM | 1.5 nM | – | – | – | – | – |
